Experimental data as given in patent US20240108740A1, “THERAPEUTIC COMPOSITIONS INCLUDING SPN10 AND USES THEREOF” (Stealth BioTherapeutics Inc., priority 2022, published 2024).
Residues, ends and D or L forms follow the SMILES beside them.

Tests used:
[1] = system: isolated mitochondria; assay: Example 13: mitochondrial swelling (A540) and cytochrome c release (ELISA)
Excerpt: MPT pore opening results in mitochondrial swelling. […] Mitochondrial suspensions will be centrifuged and the amount of cytochrome c in the pellet and supernatant will be determined using a commercially available ELISA kit.

[2] = system: Sprague Dawley rats; assay: Example 45: hypermetabolism after burn injury (indirect calorimetry); type: in vivo, rat; settings: 30% total body surface area burn; IV every 12 hours for three days
Description: Sprague Dawley rats will be randomized into the following groups; sham-burn (SB), burn with saline treatment (B), burn with peptide conjugate-treatment (BP), burn with aromatic-cationic peptides (BP2), burn with SPN10(s) (BP3), burn with SPN10(s)+aromatic-cationic peptides (BP4). Catheters will be surgically placed into jugular vein and carotid artery. Band BP, BP2, BP3 and BP4 animals will receive 30% total body surface area full thickness burns by immersing the dorsal part into 100° C. water for 12 seconds with immediate fluid resuscitation. […] The EE of the animals will be monitored for 12 hours in a TSE Indirect Calorimetry System (TSE Co., Germany).

[3] = system: mice; assay: Example 57: Ang II-induced hypertensive cardiomyopathy; type: in vivo, mouse
Description: Mouse experiments, drug delivery, echocardiography and blood pressure measurement. Six to ten mice will be included in each experimental group (Saline, Ang II, Ang II+peptide conjugate, Ang II+aromatic-cationic peptide, Ang II+SPN10, Ang II+SPN10+aromatic-cationic peptide, WT, Gαq, Gαq+peptide conjugate, Gαq+aromatic-cationic peptide, Gαq+SPN10, Gαq+SPN10+aromatic-cationic peptide). A pressor dose of Ang II (1.1 mg/kg/d) will be continuously administered for 4 weeks using subcutaneous Alzet 1004 osmotic minipumps, either alone or in the presence of with peptide conjugates (3 mg/kg/d), aromatic-cationic peptides (an equivalent molar dose of aromatic-cationic peptide based on concentration of the aromatic-cationic peptide administered in the peptide conjugate group), SPN10(s) (an equivalent molar dose of SPN10 based on concentration of SPN10 administered in the peptide conjugate group), or SPN10(s) in combination with aromatic-cationic peptides (e.g., an equivalent molar dose of SPN10 based on the concentration of SPN10 administered in the peptide conjugate treatment group and an equivalent molar dose of aromatic-cationic peptide based on the concentration of aromatic-cationic peptide administered in the peptide conjugate treatment group). Echocardiography will be performed at baseline and 4 weeks after pump implantation using a Siemens Acuson CV-70 equipped with a 13 MHz probe. […] MTI will be calculated as the ratio of the sum of isovolemic contraction and relaxation time to LV ejection time. […]
Blood pressure will be measured in a separate group of mice by telemetry using an intravascular catheter PA-C 10 (DSI, MN), in which measurement will be performed every three hours starting from 2 days before pump placement until 2 days after Ang pump placement. […]
Quantitative Pathology. […] Quantitative analysis of fibrosis will be performed by measuring the percentage of blue-staining fibrotic tissue relative to the total cross-sectional area of the ventricles. […]

**Q.** Which “mitochondrial swelling induced by MPP^+” value [1] does the source give for `N=C(N)NCCC[C@H](NC(=O)[C@@H](N)Cc1c[nH]c2ccccc12)C(=O)N[C@@H](Cc1c[nH]c2ccccc12)C(=O)N[C@@H](CCCCN)C(N)=O` [SPN10, H-L-Trp-L-Arg-L-Trp-L-Lys-NH2] (H-WRWK-NH2) here?
**A.** Its value is “prevent mitochondrial swelling”.

**Q.** What about the “swelling and cytochrome c release induced by Ca^2+ overload” value ([1]; pre-treatment) of the same molecule?
**A.** Its value is “inhibit swelling and cytochrome c release”.

**Q.** What about the “increase in energy expenditure (EE) after burn” value [2] of the same molecule?
**A.** Its value is “attenuate or prevent this effect”.

**Q.** What about the “Ang II-induced ventricular fibrosis (trichrome)” value ([3]; 4 weeks of Ang II) of the same molecule?
**A.** Its value is “fully attenuated”.

**Q.** What about the “cardiac mitochondrial protein carbonyls” value ([3]; 4 weeks of Ang II) of the same molecule?
**A.** Its value is “significantly reduce cardiac mitochondrial protein carbonyls”.

**Q.** And the “Ang II-induced cardiomyopathy” value ([3]; Ang II 1.1 mg/kg/d, 4 weeks)?
**A.** Its value is “ameliorate Ang II-induced cardiomyopathy”.
